According to PubChem BioAssay AID1996:
Converted amounts (≈) assume the structure as drawn.

Conditions: buffer; pH 7.4; 200.0 µM

| Compound | solubility kinetic [µg/mL] |
| --- | --- |
| CC1CN(S(=O)(=O)c2ccc(C(=O)O)cc2)CC(C)O1 (stereo not given) | > 44.9 |
| COc1ccc(-n2c(-c3ccc(Cl)cc3)c[nH]c2=S)cc1 | 1.5 (≈ 4.73 µM) |
| O=C(NCc1cccnc1)Nc1ccc(Cl)c(Cl)c1 | > 44.4 |
| Cc1ccc(C)c(NC(=S)N2CCN(c3ccccn3)CC2)c1 | 14.1 (≈ 43.2 µM) |
| CSc1sc(C#N)c2c1/C(=N\O)CCC2 | 1 (≈ 4.2 µM) |
| Cc1ccccc1S(=O)(=O)Nc1ncnc2ccccc12 | > 44.9 |
| C=C(C)C(=O)OCC(=O)NCc1ccccc1 | 27.2 (≈ 117 µM) |
| O=C(CCCc1cccs1)NCCc1c[nH]c2ccccc12 | 44.9 (≈ 144 µM) |
| CCOc1ccccc1NC(=O)Cn1c(=O)oc2cc(Cl)ccc21 | 10.5 (≈ 30.3 µM) |
| C[n+]1c(-c2ccccc2)sc([S-])c1-c1ccccc1 | 36 (≈ 127 µM) |
| O=C(CN1CCN(c2ccc(Cl)cc2[N+](=O)[O-])CC1)N1CCOCC1 | > 55.3 |
| O=C(O)C1CC=CCC1C(=O)NCc1ccc(Cl)c(Cl)c1 (stereo not given) | > 49.2 |
| CCc1cc(=O)[nH]c(SCC(=O)NCC2CCCO2)n1 (stereo not given) | > 44.6 |
| O=C(O)C1CCN(c2ccccc2[N+](=O)[O-])CC1 | > 37.5 |
| C/C(=N\O)c1cccc(Br)c1 | 18.1 (≈ 84.6 µM) |
| CSc1ccccc1NC(=O)CSc1nncs1 | > 44.6 |
| O=C(Nc1ccc(Nc2ccccc2)cc1)c1ccccc1F | 1.5 (≈ 4.9 µM) |
| Cc1ccc(F)c(NC(=O)c2c(-c3ccccc3)noc2C)c1 | 2.2 (≈ 7.09 µM) |
| OC(COc1ccc(Cl)cc1Cl)Cn1ccnc1 (stereo not given) | 39.6 (≈ 138 µM) |
| N#CCc1ccc(OC(=O)c2cnccc2C(F)(F)F)cc1 | 13.6 (≈ 44.4 µM) |
| Cc1cc(NC(=O)COC(=O)C2CC2)ccc1Br | > 46.8 |
| Cl.NCCC(=O)N1c2ccccc2Sc2ccc(Cl)cc21 | 33.7 |
| CC1(C)CC(=O)c2cnc3nc4ccccc4n3c2C1 | 26.6 (≈ 100 µM) |
| COc1ccc(C(=O)c2c[nH]c(C(=O)N=CN(C)C)c2)cc1 | 42 (≈ 140 µM) |

| Compound | solubility kinetic [µg/mL] |
| --- | --- |
| CC1CCCC(C)N1C(=O)COC(=O)c1ccccc1O (stereo not given) | 42.3 (≈ 145 µM) |
| CCOc1c(N2CCOCC2)c(=O)c1=O | > 31.7 |
| Cc1cccc(NC(=O)NCC(c2ccco2)N2CCCCC2)c1 (stereo not given) | > 49.1 |
| COC(=O)c1cc(S(=O)(=O)NCc2cccs2)c[nH]1 | > 45.1 |
| O=c1c2ccccc2[nH]c(=S)n1-c1ccc2c(c1)OCCO2 | 4.5 (≈ 14.4 µM) |
| C=CCNc1nc2ccccc2nc1NS(=O)(=O)c1ccc(OC)cc1 | 45.9 (≈ 124 µM) |
| COC(=O)c1cccc(N2CCCC2=O)c1 | > 32.9 |
| Cc1ccc(NC(=O)Nc2cccc3ccccc23)cc1 | < 0.3 |
| O=C(NC(=S)Nc1ccccc1Br)C1CCC1 | 7.8 (≈ 24.9 µM) |
| CCOC(=O)N1CCN(C(=O)COC(=O)c2cc(C)ccc2C)CC1 | > 52.3 |
| N#CC1(NC(=O)COC(=O)C2=COCCO2)CCCCC1 | > 44.1 |
| O=C(/C=C/c1ccco1)N1CCN(c2ccc(F)cc2)CC1 | 5.6 (≈ 18.6 µM) |
| COc1cccc(NC(=O)c2cccnn2)c1 | > 34.4 |
| COc1ccc(Cc2n[nH]c(=S)o2)cc1 | > 33.3 |
| COc1cccc(N=C(N)N=C(N)N)c1 | 25.6 (≈ 124 µM) |
| Cc1ccc(NCCC(=O)c2ccccc2)cc1Cl | < 0.6 |
| COC(=O)c1ccccc1C(=O)N1CC(O)CO1 (stereo not given) | > 37.7 |
| CCN1/C(=C/C(=S)Nc2ccccc2)Sc2ccccc21 | 6.7 (≈ 21.4 µM) |
| CSCCC1NC(=O)N(CC(=O)Nc2ccc(Cl)c(S(=O)(=O)N3CCOCC3)c2)C1=O (stereo not given) | > 73.6 |
| CC(C)c1ccc(C(C)NC(=O)C2CCCC2)cc1 (stereo not given) | 2.6 (≈ 10 µM) |
| COc1ccc(NS(=O)(=O)c2cc(NC(=O)[C@H](C)NC(N)=O)ccc2N2CCCC2)cc1 | > 69.2 |
| N[C@@H](Cc1c[nH]c2ccc(O)cc12)C(=O)O | 32.6 (≈ 148 µM) |
| Cc1[nH]c2ccc(C(=O)Nc3ccncc3)cc2c1C | 34.7 (≈ 131 µM) |
| CC(OC(=O)c1cccn1C)C(=O)Nc1ccc2c(c1)OCO2 (stereo not given) | 22.5 (≈ 71.1 µM) |

| Compound | solubility kinetic [µg/mL] |
| --- | --- |
| COc1ccc(OC)c(C(=O)COC(=O)c2cccnc2SC)c1 | 4.2 (≈ 12.1 µM) |
| N#Cc1ccccc1NC(=O)COc1ccccc1C(=O)Nc1ccccc1 | 6.6 (≈ 17.8 µM) |
| CN(CC(=O)NC1CCCCCCC1)S(=O)(=O)c1cnc[nH]1 | > 49.3 |
| COc1ccc(C2(CNC(=O)c3ccccc3)CCCC2)cc1OC | 8.2 (≈ 24.2 µM) |
| COCCCn1c(=S)[nH]c2sc3c(c2c1=O)CCCC3 | > 46.6 |
| CC(C)C(=O)Nc1ccc2c(c1)Cc1cc(NC(=O)C(C)C)ccc1-2 | < 0.4 |
| CCc1nc(Nc2ccc(F)cc2)c2oc3ccccc3c2n1.Cl | 0.8 |
| O=C(CCNC(=O)c1ccccc1)NCCCc1ccccc1 | > 46.6 |
| C=CCn1c(=O)c2c(nc3n2CCCN3Cc2ccccc2)n(C)c1=O | 19.5 (≈ 55.5 µM) |
| CC(C)CNC(=O)N[C@@H](CC(C)C)C(=O)O | > 34.5 |
| COc1cccc(OC)c1C(=O)NC(=O)Oc1c(F)cccc1F | 43.8 (≈ 130 µM) |
| Cc1sc2nc(SCCO)n(-c3ccccc3)c(=O)c2c1C | 1.4 (≈ 4.21 µM) |
| Cc1ccccc1OCC(=O)Nc1ccccc1NC(=O)c1ccco1 | 36.7 (≈ 105 µM) |
| Cc1noc(NS(=O)(=O)c2ccc(NC(=O)c3ccc(F)cc3)cc2)c1C | > 58.4 |
| O=S(=O)(c1ccc(Cl)cc1)N1CCN2CCCC2C1 (stereo not given) | > 45.1 |
| N#Cc1ccc(Oc2cnccn2)cc1 | > 29.6 |
| Cl.O=C(NCCCN1CCOCC1)c1cc(S(=O)(=O)N2CCOCC2)ccc1Cl | > 70.3 |
| CC(=O)C1=C(O)C(=O)N(c2ccc(O)cc2)C1c1ccc(C)cc1 (stereo not given) | > 48.5 |
| Cc1cccc(/C(N)=N/OC(=O)CCCc2ccccc2)c1 | 1.8 (≈ 6.07 µM) |
| O=C(COC(=O)c1cc(S(=O)(=O)N2CCCC2)ccc1O)Nc1ccccc1Br | 9.6 (≈ 19.9 µM) |
| Cc1cc(C(=O)NC2Cc3ccccc3C2)c(C)o1 | > 38.3 |
| CNC(=O)COc1ccc(Cl)c2cccnc12 | > 37.6 |
| Cc1nn(C)c(C)c1NC(=O)/C(C#N)=C\N(C)C | > 37.1 |
| COc1ccc(C(=O)O/N=C(\N)Cc2ccc([N+](=O)[O-])cc2)c(OC)c1 | 39.3 (≈ 109 µM) |

| Compound | solubility kinetic [µg/mL] |
| --- | --- |
| O=C(NC(=S)Nc1cc([N+](=O)[O-])ccc1O)c1cccnc1 | 13.5 (≈ 42.4 µM) |
| O=C(Nc1cc(S(=O)(=O)N2CCOCC2)ccc1Cl)c1ccncc1 | > 57.3 |
| O=C(CCNc1ccc(Br)cc1)c1cccc([N+](=O)[O-])c1 | 4.6 (≈ 13.2 µM) |
| Nc1cc(=O)[nH]c(SCC(=O)Nc2ccc3c(c2)CCC3)n1 | 7.8 (≈ 24.7 µM) |
| CN1CCC2(CC1)NC(=O)c1ccccc1N2.Cl | > 40.2 |
| COc1ccc(CNC(=O)C2CCC(=O)N2C(C)C)c(OC)c1 (stereo not given) | > 48.1 |
| CC(C)C(=O)Nc1ccc(-c2nc3ccccc3c(=O)o2)cc1 | 16.7 (≈ 54.2 µM) |
| Cc1cn(C2OC(CC(=O)Oc3ccccc3)C(O)C2O)c(=O)[nH]c1=O (stereo not given) | 48.5 (≈ 134 µM) |
| O=C(NC1CCCCC1)C1CC(=O)N(Cc2ccccc2)C1 (stereo not given) | > 45.1 |
| CCOC(=O)c1csc(NC(=O)c2cc3ccccc3o2)n1 | 0.8 (≈ 2.53 µM) |
| Cc1nc2ccccc2c(=O)n1-c1ccncc1 | 29.1 (≈ 123 µM) |
| C=CCSc1ncc(CO)n1Cc1ccccc1 | 37.9 (≈ 146 µM) |
| CC(CC(=O)Nc1cccnc1)c1ccccc1 (stereo not given) | > 36 |
| CCN1C(=O)C(=O)N(CC(=O)Nc2cccc(C(F)(F)F)c2)C1=O | > 51.5 |
| Cc1c(C)n(CCO)c2ncnc(Nc3ccc(F)cc3)c12 | > 45.1 |
| Cc1c(S(=O)(=O)NCc2ccccc2)c(=O)n(C)c(=O)n1C | > 48.5 |
| O=C(NCc1ccccc1Cl)c1ccc(Br)o1 | 41.9 (≈ 133 µM) |
| O=C(CCNC(=O)c1ccccc1)OCC(=O)c1ccccc1 | > 46.7 |
| CC(C)(C)Nc1nc(-c2ccccn2)nc2ccccc12 | > 41.8 |
| c1csc(-c2nc(CN3CCSCC3)cs2)c1 | 32.8 (≈ 116 µM) |
| Cc1ccc(S(=O)(=O)NC23CC4CC(CC(C4)C2)C3)cc1 | 2.4 (≈ 7.86 µM) |
| CC(C)(C)NC(=O)CSc1nc2cc(S(=O)(=O)N3CCCCC3)ccc2o1 | 3.7 (≈ 8.99 µM) |
| CC1CCCCN1Cc1c[nH]c2ccccc12 (stereo not given) | 28.8 (≈ 126 µM) |
| Cc1onc(-c2c(F)cccc2Cl)c1C(=O)Nc1ccc(S(=O)(=O)N2CCOCC2)cc1 | 2.3 (≈ 4.79 µM) |

| Compound | solubility kinetic [µg/mL] |
| --- | --- |
| Cc1cc(NC(=O)COC(=O)c2ccccc2O)no1 | 7.9 (≈ 28.6 µM) |
| COc1ccccc1NC(=O)COC(=O)c1cc(C)oc1C | 6.7 (≈ 22.1 µM) |
| CN1C(=O)c2ccccc2N(C)C1c1ccccc1Cl (stereo not given) | > 43 |
| O=C1C=C(NCCOC23CC4CC(CC(C4)C2)C3)C2(CCCCC2)O1 | 4 (≈ 11.6 µM) |
| Cn1c(=O)c(C(=O)NCCCc2ccccc2)c(O)c2ccccc21 | < 0.4 |
| O=C(NC1CCCC1)c1cc(-c2ccccc2O)on1 | 2.2 (≈ 8.08 µM) |
| O=C(COC(=O)c1ccc([N+](=O)[O-])cc1)NC1CCCC1 | 21.2 (≈ 72.5 µM) |
| CC(=O)c1ccc(NC(=O)COC(=O)C2CC3C=CC2C3)cc1 (stereo not given) | > 47 |
| CC(=O)c1cn(CCOc2cc(C)ccc2C)c2ccccc12 | < 0.7 |
| NC(=O)C1CCN(C(=O)c2cc(-c3ccccc3Cl)nc3ccccc23)CC1 | > 59.1 |
| CN(Cc1ccccc1)S(=O)(=O)c1ccc(Cl)c(C(=O)O)c1 | > 51 |
| Cc1sc2c(c1C)C(=O)/C(=C\Nc1ccncc1)S(=O)(=O)N2C | 1.9 (≈ 5.44 µM) |
| COc1ccc(C(=O)O)cc1NCc1ccc(C)s1 | > 41.6 |
| Cc1cc(C)n2nc(SCc3ccccc3C(=O)O)nc2n1 | > 47.2 |
| O=C(CN1C(=O)CCC1=O)Nc1nc(-c2ccc3ccccc3c2)cs1 | 1.8 (≈ 4.93 µM) |
| CC1CCCCC1NC(=O)COc1cccnc1[N+](=O)[O-] (stereo not given) | > 44 |
| O=C(COC(=O)c1cc(Cl)nc(Cl)c1)Nc1ccc(Cl)c(S(=O)(=O)N2CCOCC2)c1 | 31.7 (≈ 62.3 µM) |
| ClCc1nc2ccccc2c2ccccc12 | 3.2 (≈ 14.1 µM) |
| N#Cc1c(-c2ccccc2)[nH]c(=O)[nH]c1=O | > 32 |
| Cc1ccc(NC(=O)C2CCCCC2C(=O)O)cc1Cl (stereo not given) | > 44.4 |
| CC(C)Cc1ccc(S(=O)(=O)Nc2cccnc2)cc1 | 14.3 (≈ 49.2 µM) |
| O=C(CNS(=O)(=O)c1cccs1)NCc1ccc(F)cc1 | > 49.3 |
| COc1cc(OC)cc(-c2nc(-c3cccs3)no2)c1 | < 0.3 |
| CCOC(=O)Cc1csc(NC(=O)CCCC(=O)O)n1 | > 45 |
